# PMC10342075, “Blunting Neuroinflammation by Targeting the Immunoproteasome with Novel Amide Derivatives” (International Journal of Molecular Sciences, 2023)
# Assays:
# [1] = target: T1, β5i subunit of 20S immunoproteasome (LMP7) (Homo sapiens, UniProt P28062); assay: fluorogenic Suc-Leu-Leu-Val-Tyr-AMC hydrolysis (chymotrypsin-like activity) with purified human […] immunoproteasome; type: biochemical
# T1 construct: gene PSMB8; human 20S immunoproteasome isolated from human spleen; with 20S immunoproteasome (other subunits)
# T1 sequence (P28062 73-276): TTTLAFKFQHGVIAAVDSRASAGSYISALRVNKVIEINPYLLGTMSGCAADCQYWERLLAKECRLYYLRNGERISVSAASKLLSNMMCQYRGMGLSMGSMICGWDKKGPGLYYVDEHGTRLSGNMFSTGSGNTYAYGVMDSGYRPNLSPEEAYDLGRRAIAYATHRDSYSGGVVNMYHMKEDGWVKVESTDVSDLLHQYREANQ
# [2] = target: T2, β5c subunit of 20S proteasome (Homo sapiens, UniProt P28074); assay: fluorogenic Suc-Leu-Leu-Val-Tyr-AMC hydrolysis (chymotrypsin-like activity) with purified human […] proteasome; type: biochemical
# T2 construct: gene PSMB5; human 20S proteasome isolated from human erythrocytes; with 20S proteasome (other subunits)
# T2 sequence (P28074 60-263): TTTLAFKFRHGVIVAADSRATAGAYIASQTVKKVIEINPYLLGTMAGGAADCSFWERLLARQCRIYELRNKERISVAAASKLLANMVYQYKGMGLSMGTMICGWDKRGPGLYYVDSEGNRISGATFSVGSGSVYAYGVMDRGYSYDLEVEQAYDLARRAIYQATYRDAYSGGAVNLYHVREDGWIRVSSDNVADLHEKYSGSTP
IC50 [1] [µM],IC50 [2] [µM],Structure (SMILES)
16.5 ± 0.35,6.9 ± 0.18,O=C(NCc1ccccc1)[C@H](Cc1ccccc1)n1ccccc1=O [KJ9]
7.61 ± 0.76,,O=C(NCCc1ccccc1)[C@H](CCc1ccccc1)n1ccccc1=O [KJ3]
